Test results from patent publication US6916843B1, “Anti-inflammatory actions of cytochrome P450 expoxygenase-derived eicosanoids” (The United States of America as represented by the …, priority 1999, dated 2005).

Experiments:
[1] = system: VCAM-1 expression; experiment: Cell-surface enzyme immunoassay of cytokine-induced VCAM-1 expression in endothelial cells; format: cell-based, human; details: human endothelial cells, 1-100 nM
Description: (§1) FIG. 2 is a set of bar graphs of cell-surface enzyme immunoassays. […] The difference between treatment with TNF-α alone and in the presence of [11,12]-EET were statistically significant (*p<0.05, **p<0.01), OD, optical density. […] After stimulation with TNF-α (10 ng/ml) in the presence or absence of EET, promoter activity was determined relative to basal activity. *p<0.01 vs. TNF-α alone.
(§2) To determine the biological effects of EETs, we treated tumor necrosis factor alpha (TNF-α)-stimulated human endothelial cells with physiological relevant concentrations (1-100 nM) of [5,6]-EET, [8,9]-EET, [11,12]-EET, [14,15]-EET, [11,12]-DHET.

[2] = system: ICAM-1 expression; experiment: Cell-surface enzyme immunoassay of TNF-α-induced ICAM-1 expression in endothelial cells; format: cell-based, human; details: 100 nM, TNF-α 10 ng/ml
Description: as §1, §2

[3] = system: VCAM-1; experiment: VCAM-1 expression in the murine carotid artery after TNF-α; format: in vivo; details: mouse, intra-arterial infusion 100 ng/kg/min, TNF-α 10 μg/kg i.p., 5 hours
Description: FIG. 3A is a graph showing the expression of VCAM-1 in the murine carotid artery at 5 hours after treatment with intraperitaneal injection of TNF-α (10 μg/kg) alone or in combination with continuous intra-arterial infusion of [11,12]-EET (100 ng/kg/min). FIG. 3B is a bar graph showing the effect of [11,12]-EET on TNF-α induced mononuclear cell adhesion in the murine carotid artery. The mononuclear cells (U937) were perfused through the carotid artery at a wall shear stress of 3 dyn/cm^2. Intra-arterial infusion of vehicle (saline) or [14,15]-EET (100 ng/kg/min) had no effect. […] All experiments except the [14,15]-EET infusion were performed in duplicate.
To determine the functional relevance of EETs in vascular inflammation, we tested [11,12]-EET and its regioisomer [14,15]-EET in a recently developed in vivo model of TNF-α-induced VCAM-1 -mediated mononuclear cell adhesion in the murine carotid artery. […]
Cell rolling and adhesion were recorded on videotape using stroboscopic epifluoresence illumination with an introvital microscope (objective Zeiss 20×, 0.5 numerical aperture). […] In separate experiments, VCAM-1 expression was measured in paraffin-sections (5 μm thick) of carotid arteries harvested from mice treated in the same way. […]

## CCCCC/C=C\C[C@H]1O[C@H]1C/C=C\C/C=C\CCCC(=O)O [[11,12]-EET]
[1]; TNF-α
  inhibition of TNF-α-induced VCAM-1 expression (rank/words): most effective
[1]; TNF-α 10 ng/ml
  maximal inhibition of TNF-α-induced VCAM-1 expression: 75%
[2]
  inhibition of ICAM-1 expression: inhibited
[3]
  VCAM-1 expression in carotid artery: decreased
